Data on one substance can be found in PMC12778052 (Science Advances, 2026).

One experiment concerns HT1376 tumors. Briefly: Pilot in vivo EV effect on tumor uptake of [^68Ga]AJ647, HT1376 tumors. On the set-up: species or system NSG mice. Particulars: EV 20 mg/kg i.v. single dose, 24 hours before tracer, ex vivo 60 min, n = 5. How it is done:
(§1) Male NSG mice were implanted subcutaneously with HT1376 and SCaBER cells (4 million each) on the right and left rostral ends, respectively. On day 25 after cell inoculation (average tumor volume, 200 ± 35 mm^3), mice were randomized and treated with a single dose of either saline or EV ADC (20 mg/kg) injected intravenously (volume not exceeding 300 μl) or with 200 μl of saline (n = 7 per group). Twenty-four hours following the EV dose, [^68Ga]AJ647 PET scans (n = 2 per group) were acquired, and ex vivo biodistribution (n = 5 per group) was performed using the protocols mentioned above.

In the next experiment the test system is SCaBER tumors. Nature of the experiment: Pilot in vivo EV effect on tumor uptake of [^68Ga]AJ647, SCaBER tumors. The following applies: EV 20 mg/kg i.v. single dose, 24 hours before tracer, ex vivo 60 min, n = 5. Also on record: species or system NSG mice. How it is done: as §1
The conditions of experiment [1]: lowest exposure (Cavg) quartile; cited from earlier work. The text has this: Real-time assessment of tumor heterogeneity remains a critical challenge in optimizing targeted therapies. Despite the importance of sensitive assays for real-time insights into drug-tumor interactions, such tools remain limited ([6], [25]). Model-based approaches that integrate nonclinical and clinical data—such as PK and PD parameters—can facilitate efficacy and safety predictions ([26]). However, these models often fail to fully account for the dynamic complexities of tumor heterogeneity and intrinsic factors that affect drug PK/PD, especially in real time. This is particularly true for mac ...

In the case of enfortumab vedotin [EV], the “reduction in [^68Ga]AJ647 tumor uptake vs saline controls” value in the experiment on HT1376 tumors is 84%; in the experiment with SCaBER tumors, 72%. Further, the response rate in experiment [1] is listed as 32%.
